Source: PMC5898707, “Piperazinyl fragment improves anticancer activity of Triapine” (PLoS ONE, 2018)

Columns and labels:
[1] = test system: HCT116 p53^+/+; assay: Cytotoxicity MTS assay, 72 h; type: cell-based, human; conditions: Homo sapiens, HCT-116; HCT116 p53^+/+; 72 h; MTS
Source text: (§1) The human colon carcinoma cell line HCT116 wild type (p53^+/+), human breast carcinoma cell line MCF-7 and glioblastoma cell line Hs683 were obtained from ATCC. The glioma cell line U-251 was purchased from Sigma Aldrich and the normal human fibroblast cell lines NHDF from PromoCell. The human colon cancer cell line HCT116 with a p53 deletion (p53^-/-) was kindly provided by Prof. M. Rusin from the Maria Sklodowska-Curie Memorial Cancer Centre and Institute of Oncology in Gliwice, Poland. Cells were grown as monolayer cultures in Dulbecco’s modified Eagle’s medium with an antibiotic gentamicin (200 μL/100 mL medium) in 75 cm^2 flasks (Nunc). DMEM for HCT116, MCF-7, U-251, Hs683 were supplemented with 12% heat-inactivated fetal bovine serum (Sigma) and for NHDF with 15% non-inactivated fetal bovine serum (Sigma). All the cell lines were cultured under standard conditions at 37°C in a humidified atmosphere at 5% CO2.
(§2) The cells were seeded in 96-well plates (Nunc) at a density of 5,000 cells/well (HCT116, MCF-7, U-251, Hs683) and 4,000 cells/well (NHDF) and incubated at 37°C for 24 h. The assay was performed following a 72 h incubation with varying concentrations of the compounds that were tested. Then, 20 μL of The CellTiter 96®AQueous One Solution-MTS (Promega) solution was added to each well (with 100 μL DMEM without phenol red) and incubated for 1 h at 37°C. The optical densities of the samples were analyzed at 490 nm using a multi-plate reader (Synergy 4, Bio Tek). Results were expressed as a percentage of the control and calculated as the inhibitory concentration (IC50) values using GraphPad Prism 5. The IC50 parameter was defined as the compound concentration that was necessary to reduce the proliferation of cells to 50% of the untreated control. Each individual compound was tested in triplicate in a single experiment with each experiment being repeated four to five times.

[2] = test system: U-251; assay: Cytotoxicity MTS assay, 72 h; type: cell-based, human; conditions: Homo sapiens; U-251; 72 h; MTS
Source text: as §1, §2

[3] = test system: Hs683; assay: Cytotoxicity MTS assay, 72 h; type: cell-based, human; conditions: Homo sapiens, Hs 683; Hs683; 72 h; MTS
Source text: as §1, §2

[4] = test system: HCT116 p53^-/-; assay: Cytotoxicity MTS assay, 72 h; type: cell-based, human; conditions: Homo sapiens, HCT-116; HCT116 p53^-/-; 72 h; MTS
Source text: as §1, §2

[5] = test system: MCF-7; assay: Cytotoxicity MTS assay, 72 h; type: cell-based, human; conditions: Homo sapiens, MCF7; MCF-7; 72 h; MTS
Source text: as §1, §2

[6] = test system: NHDF; assay: Cytotoxicity MTS assay, 72 h; type: cell-based; conditions: Homo sapiens, NHDF normal fibroblasts
Source text: as §1, §2

[7] = tabulated value; cited from earlier work

**Q.** With `Nc1cccnc1C=NNC(=S)N1CCN(c2ccccc2)CC1` [L^1, N’-[(3-aminopyridin-2-yl)methylidene]-4-phenylpiperazine-1-carbothiohydrazide] as the compound, how does the IC50 [1] read?
**A.** The IC50 was 1520 ± 445 nM.

**Q.** And the IC50 [2]?
**A.** The IC50 was 403 ± 90 nM.

**Q.** What about the IC50 [3] of the same compound?
**A.** The IC50 was 1440 ± 358 nM.

**Q.** What about the IC50 [4] of the same compound?
**A.** The IC50 was 128 ± 12 nM.

**Q.** And the IC50 [5]?
**A.** The IC50 was 532 ± 145 nM.

**Q.** What about the IC50 [6] of the same compound?
**A.** The IC50 was over 25000 nM.

**Q.** And the melting point?
**A.** The melting point was 189 to 190 °C.

**Q.** For `Nc1cccnc1C=NNC(=S)N1CCN(c2ccc(F)cc2)CC1` [L^2, N’-[(3-aminopyridin-2-yl)methylidene]-4-(4-fluorophenyl)piperazine-1-carbothiohydrazide], which IC50 [1] is on record?
**A.** The IC50 was 526 ± 77 nM.

**Q.** What about the IC50 [2] of the same compound?
**A.** The IC50 was 887 ± 158 nM.

**Q.** And the IC50 [3]?
**A.** The IC50 was 2490 ± 512 nM.

**Q.** What about the IC50 [4] of the same compound?
**A.** Its IC50 is 152 ± 74 nM.

**Q.** And the IC50 [5]?
**A.** Its IC50 is 360 ± 111 nM.

**Q.** What about the IC50 [6] of the same compound?
**A.** The IC50 was over 25000 nM.

**Q.** What about the melting point of the same compound?
**A.** Its melting point is 210 to 211 °C.

**Q.** What does the source list for `COc1ccc(N2CCN(C(=S)NN=Cc3ncccc3N)CC2)cc1` [L^4, N’-[(3-aminopyridin-2-yl)methylidene]-4-(4-methoxyphenyl)piperazine-1-carbothiohydrazide]?
**A.** IC50 [1]: 1330 ± 209 nM; IC50 [2]: 649 ± 170 nM; IC50 [3]: 4460 ± 954 nM; IC50 [4]: 185 ± 88 nM; IC50 [5]: 424 ± 149 nM; IC50 [6]: > 25000 nM; melting point: 195 to 196 °C

**Q.** For `N#Cc1ccc(N2CCN(C(=S)NN=Cc3ncccc3N)CC2)cc1` [L^5, N’-[(3-aminopyridin-2-yl)methylidene]-4-(4-cyanophenyl)piperazine-1-carbothiohydrazide], which IC50 [1] is on record?
**A.** The IC50 was 1450 ± 452 nM.

**Q.** What about the IC50 [2] of the same compound?
**A.** Its IC50 is 2570 ± 675 nM.

**Q.** What about the IC50 [3] of the same compound?
**A.** The IC50 was 10000 ± 2640 nM.

**Q.** And the IC50 [4]?
**A.** The IC50 was 746 ± 354 nM.

**Q.** What about the IC50 [5] of the same compound?
**A.** Its IC50 is 3810 ± 1020 nM.

**Q.** What about the IC50 [6] of the same compound?
**A.** Its IC50 is over 25000 nM.

**Q.** And the melting point?
**A.** The melting point was 209 to 210 °C.

**Q.** For `Nc1cccnc1C=NNC(=S)N1CCN(c2ccc(C(F)(F)F)cc2[N+](=O)[O-])CC1` [L^6, N’-[(3-aminopyridin-2-yl)methylidene]-4-[2-nitro-4-(trifluoromethyl)phenyl]piperazine-1-carbothiohydrazide], which IC50 [1] is on record?
**A.** The IC50 was 139 ± 16 nM.

**Q.** What about the IC50 [2] of the same compound?
**A.** The IC50 was 381 ± 42 nM.

**Q.** And the IC50 [3]?
**A.** The IC50 was 1890 ± 812 nM.

**Q.** What about the IC50 [4] of the same compound?
**A.** Its IC50 is 270 ± 7 nM.

**Q.** And the IC50 [5]?
**A.** Its IC50 is 470 ± 97 nM.

**Q.** And the IC50 [6]?
**A.** Its IC50 is over 25000 nM.

**Q.** What about the melting point of the same compound?
**A.** The melting point was 179 to 180 °C.

**Q.** What does the source list for `CC(C)(C)OC(=O)N1CCN(C(=S)NN=Cc2ncccc2N)CC1` [L^7, tert-butyl 4-({2-[(3-aminopyridin-2-yl)methylidene]hydrazinyl}carbonothioyl)piperazine-1-carboxylate]?
**A.** IC50 [1]: 762 ± 238 nM; IC50 [2]: 3080 ± 1270 nM; IC50 [3]: 4620 ± 1030 nM; IC50 [4]: 1130 ± 49 nM; IC50 [5]: 2540 ± 400 nM; IC50 [6]: > 25000 nM; melting point: 193 to 194 °C

**Q.** For `Nc1cccnc1C=NNC(=S)N1CCN(c2ccccn2)CC1` [L^8, N’-[(3-aminopyridin-2-yl)methylidene]-4-(pyridin-2-yl)piperazine-1-carbothiohydrazide], which IC50 [1] is on record?
**A.** The IC50 was 1900 ± 292 nM.

**Q.** What about the IC50 [2] of the same compound?
**A.** The IC50 was 1070 ± 280 nM.

**Q.** And the IC50 [3]?
**A.** Its IC50 is 1160 ± 307 nM.

**Q.** And the IC50 [4]?
**A.** The IC50 was 139 ± 20 nM.

**Q.** And the IC50 [5]?
**A.** Its IC50 is 1120 ± 113 nM.

**Q.** What about the IC50 [6] of the same compound?
**A.** The IC50 was over 25000 nM.

**Q.** And the melting point?
**A.** The melting point was 210 to 211 °C.

**Q.** For `Nc1cccnc1C=NNC(=S)N1CCN(c2ccc(C(F)(F)F)cn2)CC1` [L^9, N’-[(3-aminopyridin-2-yl)methylidene]-4-[5-(trifluoromethyl)pyridin-2-yl]piperazine-1-carbothiohydrazide], which IC50 [1] is on record?
**A.** The IC50 was 422 ± 113 nM.

**Q.** And the IC50 [2]?
**A.** Its IC50 is 277 ± 58 nM.

**Q.** What about the IC50 [3] of the same compound?
**A.** Its IC50 is 844 ± 238 nM.

**Q.** And the IC50 [4]?
**A.** Its IC50 is 123 ± 61 nM.

**Q.** And the IC50 [5]?
**A.** The IC50 was 204 ± 24 nM.

**Q.** What about the IC50 [6] of the same compound?
**A.** Its IC50 is over 25000 nM.

**Q.** For `Nc1cccnc1C=NNC(=S)N1CCN(c2ncc(C(F)(F)F)cc2Cl)CC1` [L^10, N’-[(3-aminopyridin-2-yl)methylidene]-4-[3-chloro-5-(trifluoromethyl)pyridin-2-yl]piperazine-1-carbothiohydrazide], which IC50 [1] is on record?
**A.** Its IC50 is 170 ± 15 nM.

**Q.** And the IC50 [2]?
**A.** Its IC50 is 137 ± 16 nM.

**Q.** And the IC50 [3]?
**A.** The IC50 was 195 ± 21 nM.

**Q.** What about the IC50 [4] of the same compound?
**A.** Its IC50 is 159 ± 11 nM.

**Q.** And the IC50 [5]?
**A.** The IC50 was 258 ± 40 nM.

**Q.** And the IC50 [6]?
**A.** The IC50 was over 25000 nM.

**Q.** And the melting point?
**A.** Its melting point is 199 to 200 °C.

**Q.** Which IC50 [1] does the source give for `Nc1cccnc1C=NNC(=S)N1CCN(c2ncccn2)CC1` [L^11, N’-[(3-aminopyridin-2-yl)methylidene]-4-(pyrimidin-2-yl)piperazine-1-carbothiohydrazide] here?
**A.** The IC50 was 668 ± 45 nM.

**Q.** And the IC50 [2]?
**A.** The IC50 was 1270 ± 374 nM.

**Q.** What about the IC50 [3] of the same compound?
**A.** Its IC50 is 2840 ± 581 nM.

**Q.** And the IC50 [4]?
**A.** The IC50 was 650 ± 55 nM.

**Q.** And the IC50 [5]?
**A.** The IC50 was 1730 ± 388 nM.

**Q.** And the IC50 [6]?
**A.** The IC50 was over 25000 nM.

**Q.** What about the melting point of the same compound?
**A.** Its melting point is 198 to 199 °C.

**Q.** For `Nc1cccnc1C=NNC(=S)N1CCN(c2cnccn2)CC1` [L^12, N’-[(3-aminopyridin-2-yl)methylidene]-4-(pyrazin-2-yl)piperazine-1-carbothiohydrazide], which IC50 [1] is on record?
**A.** The IC50 was 435 ± 108 nM.

**Q.** What about the IC50 [2] of the same compound?
**A.** Its IC50 is 743 ± 109 nM.

**Q.** And the IC50 [3]?
**A.** The IC50 was 2600 ± 237 nM.

**Q.** And the IC50 [4]?
**A.** The IC50 was 342 ± 42 nM.

**Q.** And the IC50 [5]?
**A.** The IC50 was 2220 ± 638 nM.

**Q.** What about the IC50 [6] of the same compound?
**A.** The IC50 was over 25000 nM.

**Q.** And the melting point?
**A.** The melting point was 217 to 218 °C.

**Q.** For `c1ccncc1` [pyridine], which logK [7] is on record?
**A.** Its logK is 5.23.
